Columns and labels:
PDK1 = PDK1 (Homo sapiens, UniProt Q15118); assay: […]-phosphate incorporation into recombinant E1alpha by recombinant human PDK1; Lineweaver-Burk kinetics; assay type: biochemical; conditions: read-out: Ki (phenylbutyrate)
PDK3 = PDK3 (Homo sapiens, UniProt Q15120); assay: […]-phosphate incorporation into recombinant E1alpha by recombinant human PDK3; Lineweaver-Burk kinetics; assay type: biochemical; conditions: read-out: Ki (phenylbutyrate)
PDK3, sequence (Q15120 whole entry): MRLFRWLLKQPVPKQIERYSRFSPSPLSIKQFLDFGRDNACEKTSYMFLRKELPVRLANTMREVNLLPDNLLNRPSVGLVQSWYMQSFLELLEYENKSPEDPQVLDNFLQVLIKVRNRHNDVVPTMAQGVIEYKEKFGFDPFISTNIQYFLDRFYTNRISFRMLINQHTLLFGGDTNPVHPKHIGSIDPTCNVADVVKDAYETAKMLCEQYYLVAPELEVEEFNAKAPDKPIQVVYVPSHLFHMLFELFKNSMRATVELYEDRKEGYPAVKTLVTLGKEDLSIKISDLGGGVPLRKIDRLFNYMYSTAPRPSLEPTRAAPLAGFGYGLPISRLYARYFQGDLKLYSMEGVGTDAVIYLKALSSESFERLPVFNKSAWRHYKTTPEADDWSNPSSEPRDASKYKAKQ
PDK3, sequence (P08559 30-390 partner): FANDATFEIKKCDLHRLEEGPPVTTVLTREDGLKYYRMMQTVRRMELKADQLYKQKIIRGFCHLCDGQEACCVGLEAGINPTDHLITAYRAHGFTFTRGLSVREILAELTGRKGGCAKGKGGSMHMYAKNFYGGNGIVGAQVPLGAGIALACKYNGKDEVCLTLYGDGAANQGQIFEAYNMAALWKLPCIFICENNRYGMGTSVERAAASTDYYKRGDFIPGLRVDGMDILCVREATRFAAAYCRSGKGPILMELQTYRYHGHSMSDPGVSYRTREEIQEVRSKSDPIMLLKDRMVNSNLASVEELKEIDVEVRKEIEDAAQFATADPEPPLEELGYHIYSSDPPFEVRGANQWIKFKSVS

PDK1, sequence (Q15118 29-436): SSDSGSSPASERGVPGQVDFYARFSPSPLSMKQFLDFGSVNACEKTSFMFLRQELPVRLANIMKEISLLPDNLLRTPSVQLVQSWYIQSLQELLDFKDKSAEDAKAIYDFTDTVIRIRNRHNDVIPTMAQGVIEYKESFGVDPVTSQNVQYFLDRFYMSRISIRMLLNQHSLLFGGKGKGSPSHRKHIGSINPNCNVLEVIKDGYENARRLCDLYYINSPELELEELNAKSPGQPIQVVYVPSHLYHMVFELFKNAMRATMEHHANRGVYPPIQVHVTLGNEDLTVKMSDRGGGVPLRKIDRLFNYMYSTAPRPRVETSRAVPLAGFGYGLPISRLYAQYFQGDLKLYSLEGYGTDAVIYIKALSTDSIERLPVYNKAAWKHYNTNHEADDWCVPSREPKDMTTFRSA
PDK1, sequence (P08559 30-390 partner): as the sequence (P08559 30-390 partner) above

SMILES: O=C(O)CCCc1ccccc1 [PB, phenylbutyrate]
- Ki (PDK1): 7.1 ± 0.15 mM
- Ki (PDK3): 0.98 ± 0.19 mM

— publication PMC4551558, “Differential inhibition of PDKs by phenylbutyrate and enhancement of pyruvate dehydrogenase complex activity by combination with dichloroacetate” (Journal of Inherited Metabolic Disease, 2015)
